Reference: PubChem BioAssay (NCI)
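Following 48 hours of exposure in 96-well plates, responses at five concentrations were used to interpolate endpoints linearly. GI50 is the concentration that inhibits growth by half. TGI denotes the concentration required for complete inhibition of growth.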

What was measured:
Assay in all cases: NCI-60 cell line screen, 48 h
[1] = system: OVCAR-4 ovarian
[2] = system: MDA-MB-231 breast
[3] = system: LOX IMVI melanoma
[4] = system: COLO 205 colon
[5] = system: MCF7 breast
[6] = system: MDA-MB-435
[7] = system: HOP-92 NSCLC
[8] = system: PC-3 prostate
[9] = system: UACC-62 melanoma
[10] = system: SK-MEL-2 melanoma
[11] = system: SR leukemia
[12] = system: HT29 colon
[13] = system: SNB-75 CNS
[14] = system: RXF 393 renal
[15] = system: BT-549 breast
[16] = system: OVCAR-5 ovarian
[17] = system: OVCAR-3 ovarian
[18] = system: HCT-15 colon
[19] = system: HOP-62 NSCLC
[20] = system: SN12C renal
[21] = system: NCI-H522 lung
[22] = system: UACC-257 melanoma
[23] = system: SK-MEL-28 melanoma
[24] = system: SF-539 CNS
[25] = system: M14 melanoma
[26] = system: T-47D breast
[27] = system: OVCAR-8 ovarian
[28] = system: NCI-H460 lung
[29] = system: SK-OV-3 ovarian
[30] = system: MALME-3M melanoma
[31] = system: TK-10 renal
[32] = system: A498 renal
[33] = system: IGROV1 ovarian
[34] = system: SNB-19 CNS
[35] = system: UO-31 renal
[36] = system: HS 578T breast
[37] = system: RPMI-8226 leukemia
[38] = system: SK-MEL-5 melanoma
[39] = system: KM12 colon
[40] = system: NCI/ADR-RES ovarian
[41] = system: SF-268 CNS
[42] = system: SW-620 colon
[43] = system: HCT-116 colon
[44] = system: SF-295 CNS
[45] = system: A549 NSCLC
[46] = system: U251 CNS
[47] = system: NCI-H226 lung
[48] = system: K-562 leukemia
[49] = system: DU-145 prostate
[50] = system: 786-0 renal
[51] = system: CAKI-1 renal
[52] = system: HL-60(TB) leukemia
[53] = system: EKVX NSCLC
[54] = system: HCC-2998 colon
[55] = system: MOLT-4 leukemia
[56] = system: ACHN renal

Q: Which results are given for CCn1c2ccc(/C=N/OCCCN(C)C)cc2c2cc(/C=N/OCCCN(C)C)ccc21?
A: GI50 [1]: 1.73 µM; TGI [1]: 3.35 µM; GI50 [2]: 2.23 µM; TGI [2]: 5.34 µM; GI50 [3]: 1.5 µM; TGI [3]: 2.94 µM; GI50 [4]: 1.61 µM; TGI [4]: 3.05 µM; GI50 [5]: 1.49 µM; TGI [5]: 3.07 µM; GI50 [6]: 1.48 µM; TGI [6]: 2.84 µM; GI50 [7]: 1.7 µM; TGI [7]: 8.22 µM; GI50 [8]: 2.51 µM; TGI [8]: 10.9 µM; GI50 [9]: 1.92 µM; TGI [9]: 3.87 µM; GI50 [10]: 15.7 µM; TGI [10]: 30.3 µM; GI50 [11]: 1.83 µM; TGI [11]: 4.38 µM; GI50 [12]: 1.52 µM; TGI [12]: 3.51 µM; GI50 [13]: 1.68 µM; TGI [13]: 3.93 µM; GI50 [14]: 1.18 µM; TGI [14]: 2.49 µM; GI50 [15]: 1.71 µM; TGI [15]: 3.22 µM; GI50 [16]: 2.88 µM; TGI [16]: 11.5 µM; GI50 [17]: 2.08 µM; TGI [17]: 5.28 µM; GI50 [18]: 1.75 µM; TGI [18]: 3.96 µM; GI50 [19]: 4.64 µM; TGI [19]: 18.9 µM; GI50 [20]: 9.08 µM; TGI [20]: 21.5 µM; GI50 [21]: 1.73 µM; TGI [21]: 3.43 µM; GI50 [22]: 1.68 µM; TGI [22]: 3.09 µM; GI50 [23]: 1.65 µM; TGI [23]: 3.18 µM; GI50 [24]: 1.62 µM; TGI [24]: 2.99 µM; GI50 [25]: 1.7 µM; TGI [25]: 3.23 µM; GI50 [26]: 1.8 µM; TGI [26]: 3.82 µM; GI50 [27]: 2.07 µM; TGI [27]: 4.88 µM; GI50 [28]: 2.02 µM; TGI [28]: 4.36 µM; GI50 [29]: 16.4 µM; TGI [29]: 31.2 µM; GI50 [30]: 1.8 µM; TGI [30]: 3.4 µM; GI50 [31]: 14.1 µM; TGI [31]: 28.2 µM; GI50 [32]: 4.45 µM; TGI [32]: 17.2 µM; GI50 [33]: 3.08 µM; TGI [33]: 10.3 µM; GI50 [34]: 3.65 µM; TGI [34]: 14 µM; GI50 [35]: 1.5 µM; TGI [35]: 3.24 µM; GI50 [36]: 2.52 µM; TGI [36]: 7.95 µM; GI50 [37]: 1.77 µM; TGI [37]: 4.08 µM; GI50 [38]: 1.8 µM; TGI [38]: 3.23 µM; GI50 [39]: 3.24 µM; TGI [39]: 13.7 µM; GI50 [40]: 1.97 µM; TGI [40]: 4.89 µM; GI50 [41]: 3.69 µM; TGI [41]: 14.2 µM; GI50 [42]: 1.81 µM; TGI [42]: 3.78 µM; GI50 [43]: 1.27 µM; TGI [43]: 2.7 µM; GI50 [44]: 1.94 µM; TGI [44]: 3.82 µM; GI50 [45]: 1.59 µM; TGI [45]: 3.01 µM; GI50 [46]: 1.62 µM; TGI [46]: 3.14 µM; GI50 [47]: 10 µM; TGI [47]: 25.2 µM; GI50 [48]: 1.49 µM; TGI [48]: 3.63 µM; GI50 [49]: 3.46 µM; TGI [49]: 12.3 µM; GI50 [50]: 1.55 µM; TGI [50]: 3.2 µM; GI50 [51]: 1.43 µM; TGI [51]: 2.74 µM; GI50 [52]: 1.68 µM; TGI [52]: 3.95 µM; GI50 [53]: 3.26 µM; TGI [53]: 13.7 µM; GI50 [54]: 1.51 µM; TGI [54]: 2.95 µM; GI50 [55]: 1.92 µM; TGI [55]: 6.21 µM; GI50 [56]: 1.72 µM; TGI [56]: 3.13 µM
